One data set concerns the target T1, CSNK2A1 (Homo sapiens, UniProt P68400).
T1 construct: expressed in transfected cells; host or cells: HEK293
The data set can be described thus: NanoBRET assay CSNK2A1. Type of data set: cell-based. The settings on record: HEK293 cells, singlicate, read-out: CSNK2A1 pIC50 (converted). As for the experimental part:
Assays were run using a modified version of the previously published protocols. […] A transfection complex of DNA (10 μg/mL) was generated consisting of 9 μg/mL carrier DNA (Promega, Madison, WI, USA) and 1 μg/mL CSNK2A-NLuc fusion DNA in Opti-MEM without serum (Gibco). FuGENE HD (Promega) was added at 30 μL/mL to form a lipid–DNA complex. The solution was then mixed and incubated at room temperature for 20 min. The transfection complex was mixed with a 20× volume of HEK293 cells in DMEM/FBS to arrive at a final concentration of 200,000 cells/mL, and 100 μL/well was added to a 96-well plate that was incubated overnight at 37 °C and 5% CO2. The following day, the medium was removed via aspiration and replaced with 85 μL of Opti-MEM without phenol red. A total of 5 μL per well of 20× NanoBRET Tracer K10 (Promega) at 10 μM for CSNK2A1 or 5 μM for CSNK2A2 in Tracer Dilution Buffer (Promega N291B) was added to all wells, except the “no tracer” control wells. Test compounds (10 mM in DMSO) were diluted 100× in Opti-MEM media to prepare stock solutions and evaluated at 11 concentrations. A total of 10 μL per well of the 10-fold test compound stock solutions (final assay concentration of 0.1% DMSO) were added. […] The plates were read within 30 min on a GloMax Discover luminometer (Promega) equipped with a 450 nm BP filter (donor) and 600 nm LP filter (acceptor) using 0.3 s of integration time. […]

Another data set deals with T2, CLK2 (Homo sapiens, UniProt P49760).
T2 construct: expressed in transfected cells; host or cells: HEK293
T2 sequence (P49760 whole entry): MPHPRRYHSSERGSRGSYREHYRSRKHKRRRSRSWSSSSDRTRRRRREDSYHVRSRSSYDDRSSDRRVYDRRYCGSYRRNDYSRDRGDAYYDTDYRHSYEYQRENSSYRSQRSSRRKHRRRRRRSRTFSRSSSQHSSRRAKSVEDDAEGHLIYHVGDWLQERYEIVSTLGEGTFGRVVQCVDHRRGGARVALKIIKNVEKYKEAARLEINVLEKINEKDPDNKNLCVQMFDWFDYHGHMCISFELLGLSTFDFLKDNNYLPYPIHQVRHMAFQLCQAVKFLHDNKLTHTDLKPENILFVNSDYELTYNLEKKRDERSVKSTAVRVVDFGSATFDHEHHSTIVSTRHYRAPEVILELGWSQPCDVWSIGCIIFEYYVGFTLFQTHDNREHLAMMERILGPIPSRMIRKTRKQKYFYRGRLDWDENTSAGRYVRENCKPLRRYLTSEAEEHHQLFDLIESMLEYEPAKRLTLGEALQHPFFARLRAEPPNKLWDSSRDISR
The data set can be described thus: NanoBRET dose-response CLK2. It counts as cell-based. As to conditions: highest concentration tested 30 μM. On the technique in general: BRET reads energy transfer from a luciferase to a nearby fluorophore.

The test system of the next data set is CSNK2. The data set can be described thus: In vitro inhibition of phosphorylation of EIF2S2. It counts as cell-based, Human. The settings on record: A549-ACE2 cells, 1 μM and 5 μM, 24 h, Western blot. For orientation: A western blot detects proteins with antibodies after separation by electrophoresis.
Data set [1] is described as follows: Liver microsomal stability, mouse. The settings on record: male, CD-1, pH 7.4, mouse liver microsomes, five time points over 1 h, read-out: MLM CLint. Type of data set: in vitro ADME. Here is the method: Compounds 1 ([…] DMSO stock solutions) were diluted to 2.5 mM with DMSO and again to 0.5 mM with MeCN to give a final solution containing a 0.5 mM compound in 1:4 DMSO/MeCN. Liver microsomes from male CD-1 mice were sourced from Xenotech (Kansas City, KS, USA). A reaction plate was prepared by adding 691.25 μL and prewarmed (37 °C) microsomal solution (0.63 mg/mL protein and 1.3 mM EDTA in potassium phosphate buffer made by mixing ~250 mL of 100 mM K2HPO4 with ~65mL of KH2PO4 until the buffer reaches a pH of 7.4) to an empty well of a 96-well plate and maintained at 37 °C. […] The stability of the compound was calculated as the percentage of the unchanged parent remaining at T = 30 min relative to the peak area at T = 0 min.
To determine CLint, aliquots of 50 μL were taken from the reaction solution at 0, 15, 30, 45, and 60 min. […] Peak areas were determined from extracted ion chromatograms and the slope value, k, was determined by linear regression of the natural logarithm of the remaining percentage of the parent drug vs. incubation time curve. The intrinsic clearance (CLint in μL/min/mg) was calculated using the relationship CLint = kV/N where V is the incubation volume and N is the amount of protein per well.

The nature of data set [2]: Liver microsomal stability, human. The settings on record: pH 7.4, human liver microsomes, five time points over 1 h, read-out: HLM CLint. Type of data set: in vitro ADME. In general terms: Liver microsomes are a subcellular fraction often used to study metabolism.

Structures are written as SMILES. “Also recorded” adds a separate entry of the source.

T1 sequence (P68400 whole entry): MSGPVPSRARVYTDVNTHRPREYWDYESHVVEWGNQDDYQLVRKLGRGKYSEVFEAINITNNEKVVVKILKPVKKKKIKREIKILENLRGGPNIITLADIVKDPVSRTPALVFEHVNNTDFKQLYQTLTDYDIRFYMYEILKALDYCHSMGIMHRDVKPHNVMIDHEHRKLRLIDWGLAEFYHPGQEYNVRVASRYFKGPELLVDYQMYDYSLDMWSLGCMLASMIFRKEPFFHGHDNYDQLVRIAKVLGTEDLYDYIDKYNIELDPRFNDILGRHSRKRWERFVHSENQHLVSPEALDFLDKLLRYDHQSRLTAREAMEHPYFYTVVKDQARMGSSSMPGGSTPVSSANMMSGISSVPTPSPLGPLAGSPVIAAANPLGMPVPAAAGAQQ

Regarding `CCC(=O)Nc1cc(Nc2cc(NC3CC3)n3ncc(C#N)c3n2)c(F)cc1N1CCC[C@H](NC)C1` [Compound 2, (S)-N-(5-((3-cyano-7-(cyclopropylamino)pyrazolo[1,5-a]pyrimidin-5-yl)amino)-4-fluoro-2-(3-(methylamino)piperidin-1-yl)phenyl)propionamide], the IC50 was 7.94 nM on CSNK2A1 and > 30000 nM against CLK2. In addition, the “phosphorylation levels of the CSNK2 substrate EIF2S2” value with CSNK2 was “inhibited; also recorded: dose-dependent reduction”. For the same compound, the CLint scaled at 5 μM is 48.5 mL/min/kg in data set [1] and 12.9 mL/min/kg in data set [2].

The record behind these values is publication PMC11397024, “Strategic Fluorination to Achieve a Potent, Selective, Metabolically Stable, and Orally Bioavailable Inhibitor of CSNK2” (Molecules, 2024).
